Data on one substance can be found in patent US10370436B2, “Anti-pseudomonas Psl binding molecules and uses thereof” (priority 2011, dated 2019).

In the test the test system is P. aeruginosa PAO10 LPS. Nature of the test: Endotoxemia (LPS challenge) model. Type of test: in vivo, C57Bl/6 mice. Conditions: 0.2 mg/kg i.p. 2 h prior to challenge. The procedure:
In particular, C57Bl/6 mice (10 per group) were dosed i.p. with mAb or PMB-mAb conjugate 6 h prior to challenge with P. aeruginosa PAO10 LPS (Sigma) and D-galactosamine. PMB control was dosed i.p. 2 h prior to challenge at 0.2 mg/kg and typically provides 80-100% protection. Control mice dosed with unconjugated CAM-003 all died within 18 h.
TM conjugates were dosed at 45, 15 and 5 mg/kg.

As for Polymyxin B [PMB, reference compound], the protection is listed as 80-100%.
